Test results reported in paper PMC6838876 (Heliyon, 2019).
Marks after values point to notes of the source that are not given here. One block for each compound: values may come before it.

How the values were obtained:
[1] = Urinary excretion rate after oral gavage to non-fasted rats (HPLC of urine, free and conjugated forms); type: in vivo, Male Wistar rats; conditions: 40 mg/kg BW gavage; for Total urinary excretion rate at 48 h: all free and conjugated HAs
Method: The urine samples were stored at -80 °C until analysis. The rats were fed the AIN-93M diet throughout the experiment. This study was approved by the Animal Care Committee of Kindai University (permit number KABT-24-002), and the animals were maintained in accordance with the guidelines. Sample size, dose, and duration of urine collection were determined on the basis of our preliminary experiments.
The HA composition in urine was determined by the method described by Zhao et al. with a modification. […] The urine sample (20 μL) was added to 360 μL of acetic acid buffer (pH 5.0) containing 10 μg/mL sinapinic acid (internal standard) and 20 μL of acetic acid buffer (pH 5.0). The mixed solution was filtered through a 0.20 μm disposable syringe filter unit. The filtrate was analyzed by HPLC to quantify free forms of the HAs. Enzymatic hydrolysis was used to determine conjugated forms (glucuronidated and/or sulfated forms). The urine sample (20 μL) was added to 360 μL of acetic acid buffer (pH 5.0) containing 10 μg/mL sinapinic acid (internal standard) and 20 μL of β-glucuronidase type H-2 (containing both β-glucuronidase and sulfatase activity). […] The mixture was saturated with nitrogen gas and incubated at 37 °C for 2 h, followed by filtration through a 0.20 μm disposable syringe filter unit. The filtrate was analyzed by HPLC and the total amount of HAs (free forms and conjugated forms) was quantified. The conjugated HA levels were calculated by subtracting the amount of HA free forms from the total amount of HAs. […] The separation was performed using a 0.1% (v/v) trifluoroacetic acid–methanol solution (75:25, v/v) as the mobile phase at a flow rate of 1.0 mL/min at 40 °C. The injection volume was 10 μL. p-Coumaric acid was detected at 309 nm and the other HAs as well as sinapinic acid were detected at 325 nm based on the maximum absorbance. The urinary excretion rate was calculated as the percentage of the dose (mol/mol).

[2] = rats fed supplemented diet; cited from earlier work
[3] = set-up: method as in PMID 12097677, PMID 12730422; conditions: cited from earlier work
[4] = set-up: method as in PMID 16608213; conditions: fasted rats, cited from earlier work

Caffeic acid urinary excretion rate ([1]; urine 0-6 h): 7.1 % of the dose
Compound: O=C(O)/C=C/c1ccc(O)c(O)c1 [Caffeic acid, caffeic acid]

Chlorogenic acid excreted in the urine at 48 h ([1]; urine 0-48 h, free form, mean ± SE n = 4, 40 mg/kg): 0.04 ± 0.005^a % of the dose
Chlorogenic acid excreted in the urine at 48 h ([1]; urine 0-48 h, free form, mean ± SE n = 4, listed as chlorogenic acid, 40 mg/kg): 0.04 % of the dose
Compound: O=C(/C=C/c1ccc(O)c(O)c1)O[C@@H]1C[C@](O)(C(=O)O)C[C@@H](O)[C@H]1O [Chlorogenic acid, chlorogenic acid]
Urinary excretion of chlorogenic acid or the total amount of caffeic, ferulic, and isoferulic acids [2]: less than 1 % of the chlorogenic acid intake

Total urinary excretion rate at 48 h ([1]; mean ± SE n = 4, 40 mg/kg): 73.2 ± 2.1 % of the dose
Total urinary excretion rate at 48 h ([1]; mean ± SE n = 4, listed as ferulic acid, 40 mg/kg): 73.2 % of the dose
Ferulic acid excreted in the urine at 48 h ([1]; urine 0-48 h, free form, mean ± SE n = 4): 3.01 ± 0.38^a % of the dose
Ferulic acid conjugates excreted in the urine at 48 h ([1]; urine 0-48 h, mean ± SE n = 4): 70.2 ± 6.8^b % of the dose
Ferulic acid conjugates urinary excretion rate ([1]; urine 0-6 h): 64.1 % of the dose
Ferulic acid urinary excretion rate ([1]; urine 0-6 h): 3.0 % of the dose
Percentage of conjugates in the total urinary excretion ([1]; urine at 48 h): 96%
Compound: COc1cc(/C=C/C(=O)O)ccc1O [Ferulic acid, ferulic acid]
Ingested ferulic acid recovered as conjugated forms in the urine [3]: 50–70%

p-Coumaric acid urinary excretion rate ([1]; urine 0-6 h): 14.2 % of the dose
Compound: O=C(O)/C=C/c1ccc(O)cc1 [p-Coumaric acid, p-coumaric acid]
Ingested p-coumaric acid found in the urine as an intact form ([4]; gavage): 23%
Time after gavage within which the majority of p-coumaric acid was detected in urine [4]: ≤ 4 h
